Values of other authors in patent US20210290563A1, “COMPOSITIONS AND METHODS FOR TREATING NEUROP[…]” (BIONICHE GLOBAL DEVELOPMENT, LLC, priority 2017, published 2021).
Like-named read-outs stand apart in the source and are kept apart here.

Tests used:
[1] = not given; remark: listed apart in the source

| SMILES | bioavailability estimates (buccal administration) [%] | bioavailability estimates (intramuscular administration) [%] | bioavailability estimates (intranasal administration) | bioavailability estimates (intravenous administration) [%] | bioavailability estimates (oral administration) | bioavailability estimates (rectal administration) [%] | bioavailability estimates (transdermal administration) [%] | solubility in water [1] |
| --- | --- | --- | --- | --- | --- | --- | --- | --- |
| CC(C)c1cccc(C(C)C)c1O [Propofol, 2,6-diisopropylphenol] | ~50 | ~93 | 25-50% | ~100 | 13-27% | ~25 | ~10 | only sparingly soluble in water |
| CC(C)c1cccc(C(C)C)c1OCOP(=O)(O)O [Fospropofol disodium] | – | – | – | – | – | – | – | water-soluble |
